Data taken from patent publication US11492359B2, “Near-infrared nerve-sparing fluorophores” (OREGON HEALTH & SCIENCE UNIVERSITY, priority 2018, dated 2022).

Experiment: UV-Vis absorption and fluorescence spectroscopy of the Oxazine library
Type: physicochemical
Conditions: for Extinction coefficient: Beer's Law plots; for Quantum yield: relative, references Oxazine 1, Oxazine 170, Rhodamine 101
Description: All reagents were purchased from Sigma Aldrich, Fisher Scientific, TCI, or Ark Pharm. Unless otherwise indicated, all commercially available starting materials were used directly without further purification. Analytical thin layer chromatography (TLC) was performed on Millipore ready-to-use plates with silica gel 60 (F254, 32-63 μm). Flash chromatography was performed on Sorbent Technologies silica gel for column chromatography or on a Biotage Isolera Flash System using SNAP Ultra cartridges. High-resolution mass spectra (HRMS) were measured on a ThermoElectron LTQ-Orbitrap high resolution mass spectrometer with a dedicated Accela HPLC system, or an Agilent 6244 time-of-flight LCMS with diode array detector VL+. LCMS and Purity Characterization Mass-to-charge ratio and purity of the Oxazine compounds were characterized on an Agilent 6244 time-of-flight tandem liquid chromatography mass spectroscopy (LCMS) with diode array detector VL+. Sample (10 μL) was injected into a C18 column (Poroshell 120, 4.6×50 mm, 2.7 micron), and eluted with a solvent system of A (H2O, 0.1% FA) and B (MeCN, 01.% FA) at 0.4 mL/min, from A/B=90/10 to 5/95 over 10 min, maintained at A/B=5/95 for additional 5 min. Ions were detected in positive ion mode by setting the capillary voltage at 4 kV and gas temperature at 350° C. Purity was calculated through area under the curve analysis of the absorbance at 254 nm. UV-Vis Absorption and Fluorescence Spectroscopy. UV-Vis spectra were collected with a Cary 50 UV-Vis spectrophotometer at room temperature, using a 1-cm quartz cuvette. Fluorescence spectra were collected on a Cary Eclipse fluorescence spectrophotometer (Agilent Technologies). All absorbance spectra were reference corrected. Extinction coefficient was calculated from Beer's Law plots of absorbance versus concentration. Fluorescence spectra were corrected for the wavelength dependent response of the R928 photomultiplier tube using a manufacturer generated correction file. Relative quantum yields are reported as the average of multiple measurements using multiple references, including Oxazine 1, Oxazine 170, and Rhodamine 101. Physicochemical Property Calculation. Physicochemical partition coefficients (Log D) values at pH 7.4, number of hydrogen bond donors and acceptors, polar surface area, and the number of rotatable bonds were calculated using Marvin and JChem calculator plugins (ChemAxon, Budapest, Hungary). Nerve-Specificity Screening using Direct/Topical Administration Each compound was screened for its tissue-specificity using a previously published direct/topical administration strategy in murine brachial plexus and sciatic nerves.^1 Each compound from the Oxazine library was formulated in the previously utilized co-solvent formulation (10% DMSO, 5% Kolliphor, 65% serum and 20% phosphate buffered saline) at 125 μM. 100 μL of the formulated Oxazine were incubated on the exposed brachial plexus or sciatic nerve for 5 minutes. The fluorophore containing solution was removed and the area was irrigated with saline 18 times to remove any unbound fluorophore. Co-registered fluorescence and color images were collected of each stained area 30 minutes after Oxazine direct/topical administration using a custom built macroscopic imaging system with 620/60 nm excitation and 700/75 nm bandpass emission filters. Custom written MatLab code was used to analyze the tissue specific fluorescence where regions of interest were selected on the nerve, muscle and adipose tissue using the white light images. These regions of interest were then analyzed on the co-registered matched fluorescence images permitting assessment of the nerve to muscle and nerve to adipose ratios in blinded manner. […]

Structure (SMILES)	Max Abs [nm]	Max Em [nm]	Max Ex [nm]	Extinction coefficient [M⁻¹ cm⁻¹]	Quantum yield [%]
c1c2c(cc3c1Oc1cc4c(cc1=N3)OCCN=4)OCCN2 [LGW03-65, 3,8,9,10-tetrahydro-2H-bis([1,4]oxazino)[2,3-b:3′,2′-i]phenoxazin-4-ium]	629	643	630	28067	27.39
CC/N=c1/cc2oc3cc(N(C)C)ccc3nc-2cc1C [LGW04-36, (Z)—N-(7-(dimethylamino)-2-methyl-3H-phenoxazin-3-ylidene)ethanaminium]	636	657	635	60819	8.15
CC/N=c1/cc2oc3cc(NC)c(C)cc3nc-2cc1C [LGW04-81, (Z)—N-(2,8-dimethyl-7-(methylamino)-3H-phenoxazin-3-ylidene)ethanaminium]	616	634	615	52291	39.47
c1cc2nc3ccc(=[N+]4CCCCC4)cc-3oc2cc1N1CCCCC1 [LGW04-91, 1-(7-(piperidin-1-yl)-3H-phenoxazin-3-ylidene)piperidin-1-ium]	663	689	665	85597	2.77
CCN1c2cc3c(cc2C(C)=CC1(C)C)N=c1cc2c(cc1O3)=[N+](CC)C(C)(C)C=C2C [LGW05-66, 1,11-diethyl-2,2,4,8,10,10-hexamethyl-10,11-dihydro-2H-dipyrido[3,2-b:2′,3′-i]phenoxazin-1-ium]	701	718	710	34002	36.68

Other lines, results leading:

Max Abs [nm]	Max Em [nm]	Max Ex [nm]	Extinction coefficient [M⁻¹ cm⁻¹]	Quantum yield [%]	Structure (SMILES)
631	659	640	59737	6.22	CC[N+](CC)=c1ccc2nc3cc4c(cc3oc-2c1)NCC4 [LGW03-88, N-(2,3-dihydropyrrolo[3,2-b]phenoxazin-8(1H)-ylidene)-N-ethylethanaminium]
620	638	620	61084	39.77	CCCNc1cc2oc3c/c(=N/CC)c(C)cc-3nc2cc1C [LGW04-32, (Z)—N-(2,8-dimethyl-7-(propylamino)-3H-phenoxazin-3-ylidene)ethanaminium]
638	660	640	36166	3.84	CCNc1cc2oc3cc(=[N+](CC)CC)ccc-3nc2cc1Cl [LGW05-33, N-(8-chloro-7-(ethylamino)-3H-phenoxazin-3-ylidene)-N-ethylethanaminium]
620	638	620	18223	34.29	CC/N=c1/cc2oc3cc(NCC)c(Cl)cc3nc-2cc1Cl [LGW05-39, (Z)—N-(2,8-dichloro-7-(ethylamino)-3H-phenoxazin-3-ylidene)ethanaminium]
612	636	615	41527	37.22	CC/N=c1/cc2oc3cc(NCC)c(Cl)cc3nc-2cc1C [LGW05-42, (Z)—N-(8-chloro-7-(ethylamino)-2-methyl-3H-phenoxazin-3-ylidene)ethanaminium]
661	684	665	61535	7.85	CCN1CCOc2cc3nc4ccc(=[N+](CC)CC)cc-4oc3cc21 [LGW05-65, N-ethyl-N-(4-ethyl-3,4-dihydro-[1,4]oxazino[2,3-b]phenoxazin-8(2H)-ylidene)ethanaminium]
